Our source for the MIC values is patent US20210267239A1, “Process for Sanitizing and Preserving Foodstuffs and Beverages” (LANXESS Deutschland GmbH, priority 2018, published 2021).

Common to all, as to type: cell-based
For one test, the system named is Candida albicans. Kind of test: MIC determination in RPMI-1640 growth medium (CLSI M27-A3). To be noted: 168 h, growth medium RPMI-1640, seeding 1000 cfu/ml, after one week, read-out: MIC (mg/l) after one week. Here is the method: (§1) After one week, a proportion of the growth medium was tested for the presence of microorganisms and these tests were used to determine the MIC (minimum inhibitory concentration). Individual test substances: natamycin, mycosamine Test microbe: Candida albicans Substrate: growth medium Microbial seeding per ml of substrate: 1000 cfu/ml Synergism was ascertained according to the method described in Kull, F. C. et al.; Mixtures of quaternary ammonium compounds and long-chain fatty acids as antifungal agents. Applied Microbiology, 9, 538-541, 1961. The following relationships apply: QA/Qa+QB/Qb=SI Qa=concentration of substance A which is the MIC Qb=concentration of substance B which is the MIC QA=concentration of substance A in the concentration of A/B at which microbial growth is suppressed QB=concentration of substance B in the concentration of A/B at which microbial growth is suppressed SI=synergistic index […]

The next test deals with Candida glabrata. Described as above. The settings on record: Nakaseomyces glabratus, 168 h, growth medium RPMI-1640, seeding 1000 cfu/ml, after one week, read-out: MIC (mg/l) after one week. Here is the method: as §1, with “the” for “the growth”, “glabrata” for “albicans”
The next test has as its system Candida krusei. The description is as above. The settings on record: Pichia kudriavzevii, 168 h, growth medium RPMI-1640, seeding 1000 cfu/ml, after one week, read-out: MIC (mg/l) after one week. Here is the method:
as §1, with “the” for “the growth”, “krusei” for “albicans”

Test [1] relates to mixture of Saccharomyces cerevisiae, Zygosaccharomyces bailii, Penicillium carneum and Trichoderma virens. As to the kind of experiment: MIC determination in contaminated iced tea, non-carbonated. To be noted: 168 h, mixed test microbes, 250 cfu/ml each, after one week, read-out: MIC (mg/l) after one week. Here is the method: as §1, with “the” for “the growth”, “mixture of Saccharomyces cerevisiae, Zygosaccharomyces bailii, Penicillium carneum and Trichoderma virens” for “Candida albicans”, “iced tea, non-carbonated” for “growth medium”, “250” for “1000”, “cfu/ml each of the test microbes listed above” for “cfu/ml”

Regarding `C[C@@H](O)[C@@H](O)[C@H](N)[C@H](O)C=O` [Mycosamine, 3-amino-3,6-dideoxymannose], the MIC with Candida albicans stood at 32 mg/L; with Candida glabrata, 0.5 mg/L; with Candida krusei, 2 mg/L; in test [1] it was 0.75 mg/L.

In the case of `C[C@@H]1C/C=C/C=C/C=C/C=C/[C@H](O[C@@H]2O[C@H](C)[C@@H](O)[C@H](N)[C@@H]2O)C[C@@H]2O[C@](O)(C[C@@H](O)C[C@H]3O[C@@H]3/C=C/C(=O)O1)C[C@H](O)[C@H]2C(=O)O` [Natamycin, (8E,14E,16E,18E,20E)-(1R,3S,5R,7R,12R,22R,24S,25R,26S)-22-(3-amino-3,6-dideoxy-25-D-mannopyranosyloxy)-1,3,26-trihydroxy-12-methyl-10-oxo-6,11,28-trioxatricyclo[22.3.1.05,7]octacosa-8,14,16,18,20-pentaene-25-carboxylic acid], the MIC with Candida albicans was 1 mg/L; in the test on Candida glabrata, 1 mg/L; with Candida krusei it was 2 mg/L; in test [1], 4 mg/L.
